According to patent publication US8288394B2, “1-(1H-1,2,4-triazol-1-yl)butan-2-ol derivative for pharmaceutical use, and the use of a 1-(1H-1,2,4-triazol-1-yl)butan-2-ol derivative with substantially undefined crystal shape for preparing said 1-(1H-1,2,4-triazol-1-yl)butan-2-ol derivative” (Medichem, S.A., priority 2009, dated 2012):

Assays:
Format in all cases: physicochemical
[1] = Particle density by pycnometry; conditions: pycnometry at 25° C., n-heptane, mean of three
Experimental: The particle density experimental values were obtained by means of a pycnometer, specifically a 50 mL glass pycnometer. The measurements were carried out under technical characteristics as set out below. Namely, the determinations were done at 25° C.; the liquid of reference was n-heptane; the measurements were carried out three times, and the result is the mean of said measured values.

[2] = Particle size distribution, laser diffraction (Malvern Mastersizer S, wet); conditions: for Particle Size Distribution D50 / Particle Size Distribution D10 / Particle Size Distribution D90: by volume, mean of six; for D[3,2] (Sauter diameter, DMVS): mean diameter by surface area to volume; for Particle Size Distribution D[4,3]: mean diameter by volume
Source text: The particle size parameters measured in the present invention have been obtained by means of laser light diffraction technique, and specifically by means of a Malvern Mastersizer S particle size analyzer having characteristics as set out below. Namely, the laser source used was a 2 milliwatt Helium/neon laser (633 nm wavelength); the detection system was a Fourier Transform lens system; the sample was run using a 2.40 mm lens; the sample unit was a sample unit for wet measurement, and particularly was a MS1-Small volume Sample Dispersion Unit stirred cell. The wet dispersion was prepared by using deionized water as a dispersant, and the dispersion was controlled by stirring the unit cell. […] The characterization parameters (volume distributions) were measured for at least six times for each sample, and the result is a mean of said measured values for each sample.
The sample was run using the 2.40 mm lens. The sample unit was a MS1-Small Volume Sample Dispersion Unit stirred cell. The dispersant was deionized water. The sample particle size distribution was assumed to follow a normal distribution.
Analysis model: polydisperse. Setup presentation: 3_WATERF. Particle R.I.=(1.6800, 0.01). Dispersant R.I.=1.33.
This sample was sonicated for 2 minutes and delivered dropwise to the previously background and corrected measuring cell filled with dispersant (deionized water) until the obscuration reached the desired level. Volume distributions were obtained for at least six measures. For characterization, the values of D10, D50 and D90 (by volume), D[4,3] (mean diameter by volume) and D[3,2] (mean diameter by surface area to volume, or Sauter diameter) were specifically listed, each one being the mean of the six values available for each characterization parameter.
The notation DX [also written as D(v, 0.X)] means that X % of the particles have a diameter less than a specified diameter D. Thus a D90 [or D(v, 0.9)] of 100 μm means that 90% of the particles have a diameter less than 100 μm.

[3] = BET specific surface area (Micromeritics Gemini V, N2 at 77 K); conditions: N2 adsorption at 77 K
Source text: The specific surface area values disclosed in the present invention have been obtained by means of a specific surface area analysis technique based on the BET (Brunauer, Emmett and Teller) theory, which is a well-accepted theory known in the art for the calculation of surface areas of solids by means of measuring their physical adsorption of gas molecules (See S. Brunauer, P. H. Emmett and E. Teller, J. Am. Chem. Soc., 1938, 60, 309). In particular, the specific surface area values measured in the present invention have been calculated from the BET surface area plot obtained by measuring the quantity of nitrogen gas molecules adsorbed by a weighted amount of solid at different relative pressures (P/P0) within the range 0.05-0.3, at 77 K. Precisely, the measurement of the adsorption of gas molecules was carried out by means of a Micromeritics™ Gemini V equipment having the characteristics as set out below. Namely, the gas used for adsorption measure was nitrogen gas. […] The sample for analysis was degassed (at 30° C. for 10 minutes and at 80° C. for one hour). The determination of the adsorption of nitrogen was measured at 77 K and for twelve relative pressures sufficiently dispersed within in the range of 0.05 to 0.3. (i.e. twelve absolute pressures in the range of 38.425 mmHg to 230.000 mmHg relative to a saturated pressure of 764,480 mmHg).
The sample for analysis was degassed at 30° C. for 10 minutes and at 80° C. for one hour.

[4] = Sphericity factor calculated from density, Sauter diameter and specific surface area
Source text: Flowability affects the ease with which the material is handled during processing into a pharmaceutical product. When the flowability is poor, problems occur with handling and processing during formulation. It is known that the shape of a particle affects its handling and flow properties. However, quantification of particle shape is extremely difficult for irregular and/or micronized particles. One of the most common ways of expressing the degree of irregularity of the particles is by means of the sphericity factor (ΨW), which is generally defined as the ratio between the surface area of a sphere having the same volume as the particle and the surface area of the particle:
[formula] where dv and ds are the equivalent volume and surface diameter, respectively (Part. Part. Syst. Charact. 1996, 13, 368-373).
Because sphericity factors are not calculated for each particle but for an assembly of particles, they have to be based on an average size. Thus, the sphericity factor will then be given by the following equation:
[formula] where SW is the powder specific surface area, ρ is the particle density and DMVS is the surface area mean diameter, also referred to as the mean volume-surface diameter, the Sauter diameter or D[3,2]. The Sauter diameter is defined as the diameter of a sphere that has the same volume/surface area ratio as the particle of interest.
A sphericity factor of 1.0 describes a perfect sphere with the greatest ease of flow (Encapsulated and powdered foods, CRC Press 2005). […] In this regard, sphericity factor values below 0.2 are usually found for low-flowability solids in form of platelets or needles. Therefore, a sphericity factor greater than 0.2 generally indicates an acceptable flowing material.

[5] = listed as prior art micronized voriconazole
[6] = calculated using the measured particle density value
[7] = calculated using the reported crystal density value

| Structure (SMILES) | Density (experimental particle density ρ) [1] [g/mL] | Density (experimental particle density ρ) [1, 5] | Particle Size Distribution D50 [2] [μm] | D[3,2] (Sauter diameter, DMVS) [2] [μm] | D[3,2] (Sauter diameter, DMVS) [2, 5] | Particle Size Distribution D[4,3] [2] [μm] | Particle Size Distribution D10 [2] [μm] | Particle Size Distribution D90 [2] [μm] | Specific Surface Area (BET), Sw [3] [m^2/g] | sphericity factor Ψw [4, 6] | sphericity factor Ψw [4, 7] |
| --- | --- | --- | --- | --- | --- | --- | --- | --- | --- | --- | --- |
| C[C@@H](c1ncncc1F)[C@](O)(Cn1cncn1)c1ccc(F)cc1F [Comparative Example 2, voriconazole, reference compound] | 1.40 | about 1.400 g/cm^3 | 15.2 | 8.3 | about 8.3 μm | 28.7 | – | – | – | – | – |
| C[C@@H](c1ncncc1F)[C@](O)(Cn1cncn1)c1ccc(F)cc1F [Example 2, voriconazole] | 1.35 | – | 29.7 | 15.4 | – | 44.5 | 7.4 | 102.8 | 0.9319 | 0.31 | 0.29 |
| C[C@@H](c1ncncc1F)[C@](O)(Cn1cncn1)c1ccc(F)cc1F [Example 3, voriconazole] | 1.33 | – | 21.7 | 12.2 | – | 27.3 | 6.0 | 56.2 | 1.0997 | 0.34 | 0.31 |
| C[C@@H](c1ncncc1F)[C@](O)(Cn1cncn1)c1ccc(F)cc1F [Example 4, voriconazole] | 1.32 | – | 22.4 | 12.3 | – | 30.3 | 6.0 | 64.0 | 1.0992 | 0.34 | 0.31 |
| C[C@@H](c1ncncc1F)[C@](O)(Cn1cncn1)c1ccc(F)cc1F [Example 5, voriconazole] | 1.37 | – | 32.3 | 15.8 | – | 42.8 | 7.6 | 92.7 | 1.1451 | 0.24 | 0.23 |
| C[C@@H](c1ncncc1F)[C@](O)(Cn1cncn1)c1ccc(F)cc1F [Example 6, voriconazole] | 1.40 | – | 33.4 | 17.2 | – | 43.3 | 8.6 | 92.3 | 0.9769 | 0.25 | 0.23 |
| C[C@@H](c1ncncc1F)[C@](O)(Cn1cncn1)c1ccc(F)cc1F [Example 7, voriconazole] | – | – | 25.3 | 14.3 | – | 24.9 | 7.5 | 57.4 | 1.1032 | – | 0.26 |
| C[C@@H](c1ncncc1F)[C@](O)(Cn1cncn1)c1ccc(F)cc1F [Example 8, voriconazole] | – | – | 7.3 | 5.2 | – | 14.2 | 2.5 | 29.9 | 1.5910 | – | 0.50 |
